Values quoted from earlier work as cited in publication PMC9762682, “Tocotrienols: Exciting Biological and Pharmacological Properties of Tocotrienols and Naturally Occurring Compounds, Part II” (Annals of clinical case reports, 2022).
Read-outs that look alike come from different tables or passages of the source.

Legend:
plasma miRNAs = system: plasma miRNAs; design: method as in ref 14 = [14]; PMID 27493840; doi:10.4172/2155-9880.1000434; 14. Qureshi AA , Khan DA , Saleem S , Silswal N , Trias AM , Tan B , Pharmacokinetics and bioavailability of Annatto δ-tocotrienol in healthy fed subjects . J Clin Exp Cardiol . 2015; 6 : 11 . 10.417; details: for plasma miR122a / plasma miR-1 / plasma miR-7 / plasma miR-9 / plasma miR-15b / plasma miR-17-5p / plasma miR-19a / plasma miR-19b / plasma miR-24 / plasma miR-26a / plasma miR-34a / plasma miR-106a / plasma miR-107 / plasma miR-132 / plasma miR-143 / plasma miR-145 / plasma miR-148a / plasma miR-181a / plasma miR-182 / plasma miR-192 / plasma miR-194 / plasma miR-196a / plasma miR-199a / plasma miR-204 / plasma miR-205 / plasma miR-222 / plasma miR-342: 0-h = 100
Pancreas cancer cells = system: Pancreas cancer cells; design: method as in PMID 29606130
[1] = δ-tocotrienol treatment, pharmacokinetic study

CC(C)=CCC/C(C)=C/CC/C(C)=C/CC[C@]1(C)CCc2cc(O)cc(C)c2O1 [δ-Tocotrienol]
plasma miR122a (plasma miRNAs; 3-h, 125 mg δ-tocotrienol): 166%
plasma miR-1 (plasma miRNAs; 3-h, 125 mg δ-tocotrienol): 78%
plasma miR-7 (plasma miRNAs; 3-h, 125 mg δ-tocotrienol): 94%
plasma miR-9 (plasma miRNAs; 3-h, 125 mg δ-tocotrienol): 88%
plasma miR-15b (plasma miRNAs; 3-h, 125 mg δ-tocotrienol): 110%
plasma miR-17-5p (plasma miRNAs; 3-h, 125 mg δ-tocotrienol): 106%
plasma miR-19a (plasma miRNAs; 3-h, 125 mg δ-tocotrienol): 95%
plasma miR-19b (plasma miRNAs; 3-h, 125 mg δ-tocotrienol): 91%
plasma miR-24 (plasma miRNAs; 3-h, 125 mg δ-tocotrienol): 77%
plasma miR-26a (plasma miRNAs; 3-h, 125 mg δ-tocotrienol): 80%
plasma miR-34a (plasma miRNAs; 3-h, 125 mg δ-tocotrienol): 72%
plasma miR-106a (plasma miRNAs; 3-h, 125 mg δ-tocotrienol): 74%
plasma miR-107 (plasma miRNAs; 3-h, 125 mg δ-tocotrienol): 156%
plasma miR-132 (plasma miRNAs; 3-h, 125 mg δ-tocotrienol): 199%
plasma miR-143 (plasma miRNAs; 3-h, 125 mg δ-tocotrienol): 63%
plasma miR-145 (plasma miRNAs; 3-h, 125 mg δ-tocotrienol): 54%
plasma miR-148a (plasma miRNAs; 3-h, 125 mg δ-tocotrienol): 208%
plasma miR-181a (plasma miRNAs; 3-h, 125 mg δ-tocotrienol): 48%
plasma miR-182 (plasma miRNAs; 3-h, 125 mg δ-tocotrienol): 76%
plasma miR-192 (plasma miRNAs; 3-h, 125 mg δ-tocotrienol): 28%
plasma miR-194 (plasma miRNAs; 3-h, 125 mg δ-tocotrienol): 50%
plasma miR-196a (plasma miRNAs; 3-h, 125 mg δ-tocotrienol): 65%
plasma miR-199a (plasma miRNAs; 3-h, 125 mg δ-tocotrienol): 81%
plasma miR-204 (plasma miRNAs; 3-h, 125 mg δ-tocotrienol): 45%
plasma miR-205 (plasma miRNAs; 3-h, 125 mg δ-tocotrienol): 39%
plasma miR-222 (plasma miRNAs; 3-h, 125 mg δ-tocotrienol): 55%
plasma miR-342 (plasma miRNAs; 3-h, 125 mg δ-tocotrienol): 70%
plasma miR122a (plasma miRNAs; 6-h, 500 mg δ-tocotrienol): 196%
plasma miR-1 (plasma miRNAs; 6-h, 500 mg δ-tocotrienol): 63%
plasma miR-7 (plasma miRNAs; 6-h, 500 mg δ-tocotrienol): 85%
plasma miR-9 (plasma miRNAs; 6-h, 500 mg δ-tocotrienol): 44%
plasma miR-15b (plasma miRNAs; 6-h, 500 mg δ-tocotrienol): 132%
plasma miR-17-5p (plasma miRNAs; 6-h, 500 mg δ-tocotrienol): 168%
plasma miR-19a (plasma miRNAs; 6-h, 500 mg δ-tocotrienol): 36%
plasma miR-19b (plasma miRNAs; 6-h, 500 mg δ-tocotrienol): 70%
plasma miR-24 (plasma miRNAs; 6-h, 500 mg δ-tocotrienol): 45%
plasma miR-26a (plasma miRNAs; 6-h, 500 mg δ-tocotrienol): 62%
plasma miR-34a (plasma miRNAs; 6-h, 500 mg δ-tocotrienol): 59%
plasma miR-106a (plasma miRNAs; 6-h, 500 mg δ-tocotrienol): 56%
plasma miR-107 (plasma miRNAs; 6-h, 500 mg δ-tocotrienol): 173%
plasma miR-132 (plasma miRNAs; 6-h, 500 mg δ-tocotrienol): 145%
plasma miR-143 (plasma miRNAs; 6-h, 500 mg δ-tocotrienol): 36%
plasma miR-145 (plasma miRNAs; 6-h, 500 mg δ-tocotrienol): 44%
plasma miR-148a (plasma miRNAs; 6-h, 500 mg δ-tocotrienol): 233%
plasma miR-181a (plasma miRNAs; 6-h, 500 mg δ-tocotrienol): 21%
plasma miR-182 (plasma miRNAs; 6-h, 500 mg δ-tocotrienol): 64%
plasma miR-192 (plasma miRNAs; 6-h, 500 mg δ-tocotrienol): 21%
plasma miR-194 (plasma miRNAs; 6-h, 500 mg δ-tocotrienol): 21%
plasma miR-196a (plasma miRNAs; 6-h, 500 mg δ-tocotrienol): 43%
plasma miR-199a (plasma miRNAs; 6-h, 500 mg δ-tocotrienol): 65%
plasma miR-204 (plasma miRNAs; 6-h, 500 mg δ-tocotrienol): 41%
plasma miR-205 (plasma miRNAs; 6-h, 500 mg δ-tocotrienol): 45%
plasma miR-222 (plasma miRNAs; 6-h, 500 mg δ-tocotrienol): 51%
plasma miR-342 (plasma miRNAs; 6-h, 500 mg δ-tocotrienol): 52%
expression of miR-107, miR-122a, and miR-132 (plasma miRNAs; [1]): up-regulated
gene expression of miR-34a (plasma miRNAs; [1]): down-regulated
IC50 (Pancreas cancer cells): 10 µM
percentage of control at IC50 dose (Pancreas cancer cells): 36%
effective dose (Pancreas cancer cells; 48 h): 20 µM
percentage of control at effective dose (Pancreas cancer cells; 48 h): 5%
